The conditions of data set [1]: topical delivery; 100 μL of 5 mg/mL; 3% agarose; 30 min. From the text:
Agarose and other agar-based hydrogels have been widely used as skin models in previous studies^37,38. […] The intensity is also plotted quantitatively against the depth of penetration (FIG. 15C).

A short description of data set [2]: Release profile from hydrogel-filled MNAs. It is filed as physicochemical. The following applies: three concentrations, 3 mm and 2 mm MNAs, 72 hrs in PBS. As for the experimental part:
MNAs were filled with this BSA-containing alginate solution and Calcium Chloride (CaCl2) used for crosslinking following this protocol: first placing MNAs in 3% (w/v) agarose gel containing 2% (v/v) CaCl2 for few minutes and then pipetting additional 2% (v/v) CaCl2 over the tops to ensure complete crosslinking.
To perform a 3-day long release study, each needle array was placed in 0.5 mL of PBS. Samples were taken from solution at each time point over the course of 72 hrs and were stored in micro vials at room temperature over the duration of the release. For the final evaluation of protein release, 150 μL of each sample added to 96 well plates mixed with 150 μL of working reagent. Working reagent solution was made from a mixture of reagent A, B and C of BCA protein kit with the ratio of 24:24:1. Once reagents and samples were mixed, plates were incubated at 37° C. for an hour, and a plate reader (BioTech) used to read the absorption. Absorption values from the plate reader converted to concentrations using a calibration curve.
After filling the MNAs with the solution, PEGDA was photocrosslinked for approximately 30 seconds using a handheld UV light. A similar experimental protocol followed to study protein release from PEGDA over the course of 72 hours.

For the next data set, the system named is HUVECs. The following applies: VEGF equivalent to 50 ng/mL through MNAs. As for the experimental part: To develop a method for mimicking the crust and necrotic tissue covering chronic wounds, 12-well cell culture inserts were used and covered with […] of 3% (w/v) agarose solution […]. […] Similar techniques were applied for scratch assay with seeding HUVECs in the bottom of chamber covered by 2 mL basal media.
To assess the effectiveness of the released factors, a standard scratch assay was conducted. Wells of a 12-well plate were coated by Geltrex. After aspirating the Geltrex from the wells, 30,000 cells per well were seeded and cultured until a confluent monolayer formed in each well. The cells were cultured in basal media supplemented with 2% FBS for 6 hours. prior to the experiments. On the day of experiments, an approximately 200 μm wide scratch was formed using a 200 μL micropipette tip. […] Fixed points of each well (two points per well) were imaged using a Nikon Ti inverted microscope after 0, 2, and 4 hours after each treatment application. A total of 4 samples per condition was tested.

For data set [3], the system named is full thickness skin wounds of diabetic (Lepr^db) mice. As for the experimental part:
To further investigate the potential benefits of MNAs in treatment of diabetic and chronic wounds, an animal study was conducted on diabetic mice with cutaneous wounds. Homozygous mice for the diabetes spontaneous mutation (Lepr^db) become identifiably obese around 3 to 4 weeks of age. On day 10 to 14 elevations of plasma insulin begin and at four to eight weeks the blood sugar level elevates. With a delayed wound healing and an increased metabolic efficiency this mouse strain serves as a suitable model for chronic wound research.
On day one, all the mice received a square shaped 1 cm×1 cm full thickness skin cut on their dorsum. The animals were kept untreated for 5 days to allow the formation of wound crust. On days 5 and 7 post-surgery, animals received the planned treatment. T weight of each animal was recorded periodically, and wound areas were assessed every two days and photographed to monitor investigate wound closure (FIG. 5A).
Animal Studies: All animal procedures were reviewed and approved by the Institutional Animal Care and Use Committee (IACUC) of the University of Nebraska, Lincoln. Five weeks old B6.BKS(D)-Lepr^db/J mice were purchased from the Jackson Laboratory (Bar Harbor, Me.) weighted between 34-43 grams and accommodated in University of Nebraska, Life Science, animal facility for one week before the wound injury procedure. The animals were on special food diet during the entire research period.
In the day 1, all animals were anesthetized by 5% of isoflurane using anesthesia system, (VetFlo, Kent Scientific, Torrington, Conn.) via a nose cone. The hair on the dorsal region of animals was shaved using an electric razor. The skin was sterilized, and a full thickness skin cut of 1 cm×1 cm was created. The wounds were covered with a regular bandage. All mice placed back in separate cages individually after recovering from anesthesia. Animals were monitored for wound condition, vitals and wellbeing, and weight gain/loss trends daily.
To simulate the real wound conditions covered by crust and necrotic tissues, treatment start points were on day 5 by which a complete crust was formed on the wounds. […] In the topical delivery group, 100 μl of the solution was poured topically using a pipette on the top of the wound and the animals were let to sit for about 10 minutes, the wound was then covered by a fresh dressing. In MNAs delivery group, 100 μl of the solution was delivered using the MNAs and after 10 min, the microneedles were removed and the wound was covered by a fresh dressing. Animals of negative control received no treatment. […] Wounds were inspected every 2 days and the bandage was changed and a picture of the wound was taken using a digital camera.
On day 19, all animals were sacrificed using 20% CO2 volume displacement (flow rate cage volume/per minute) poisoning overdose and wound tissue was harvested and fixed in using 4% paraformaldehyde (PFA).
Histology: Frozen sections of haired skin were stored in a −80° C. ultralow freezer prior to sectioning on a cryotome. The sections of skin were cut 10 μm thick using a Thermo Scientific CryoStar NX50, routinely stained with hematoxylin and eosin on a Leica ST5020 H&E stainer, and coverslipped with a Leica CV5030 coverslipper. A veterinary anatomic pathologist who is board certified by the American College of Veterinary Pathologists performed all histological evaluations. Immunohistochemistry was done manually using Anti-CD31, rabbit host species (ab28364, Abcam, MA, USA).

Data set [4] has as its system full-thickness skin wounds of diabetic (Lepr^db) mice. As to conditions: for average healing rate: 100 μL of 500 ng/mL on days 5 and 7; for histological features at the central region of the wounds (H&E): day 19. From the text:
On the day of surgery, mice received a full thickness (1×1 cm^2) skin wound on their dorsum. Mice with the full thickness (1×1 cm^2) wound on their dorsum were kept untreated for 5 days to allow eschar formation. Animals received treatment via three different delivery methods on days 5 and 7 post-surgery. […] Similar to in vitro experiments, to minimize the potential injury upon the delivery of therapeutics intradermally using LJI, a layer of agarose was placed between the wound and the nozzle.
Small Animal studies: Murine animal procedures were approved by the Institutional Animal Care and Use Committee (IACUC) of the University of Nebraska, Lincoln. Six to seven weeks old B6.BKS(D)-Lepr^db/J mice were obtained from the Jackson Laboratory (Bar Harbor, Me.). Since this mouse strain had congenic obesity, the animals were put on a special food diet. […] On day 0 of the study, 5% isoflurane was provided via a nose cone for anesthetization of animals and 3% isoflurane was used for maintaining sedation. The hair on the dorsal area was shaved, the skin was sterilized, and a full-thickness skin cut of 1 cm×1 cm was created. Buprenorphine SR was administered for pain relief at the time of surgery.
Animals received treatments on day 5 and day 7 post-surgery. […] To minimize the potential damage of solutions delivered by LJI to mice, an approximately 9 mm thick layer of 5% (w/v) of agarose was placed between the LJI nozzle and animal skin (FIG. 21).
Animals were inspected daily for wound closure, weight change and vitals. All animals were sacrificed on day 19 post-surgery using CO2 asphyxiation using a 30% oxygen displacement rate. The wound tissue was harvested and fixed in 10% neutral buffered formalin for further histological study.
Histological analysis: Sections of harvested skin were fixed by immersion in 10% neutral buffered formalin and routinely processed on a Tissue-Tek VIP 5 Tissue Processor. After processing, the tissues were embedded in paraffin blocks and were sectioned at 4 μm thick on a HM 355S Thermo Scientific microtome. Slides were deparaffinized and stained with H&E using a Leica ST5020 H&E stainer. Histological evaluation was conducted by a board certified veterinary anatomic blinded to the experiment.
Immunohistochemistry staining: In the murine study, formalin-fixed and paraffin-embedded biopsies were cut into 7 μm thick samples. Slides were deparaffinized, hydrated and washed using xylene and ethanol solutions. Subsequently, a heat mediated antigen retrieval step was performed at 95° C. for […]. The sections were blocked using 2.5% normal horse serum for 30 min at room temperature, and incubated with primary antibody (anti-CD31) at 4° C. overnight. Tissue sections were then treated with 3% hydrogen peroxide for 10 minutes at room temperature to block the peroxidase activity. Secondary antibody was then applied for 30 minutes at room temperature. To form a colored precipitate, DAB solution was incubated on the slides for 3-5 minutes. Finally, counterstaining was performed using hematoxylin for 30 seconds, and sections were dehydrated, washed, covered with mounting solution, and cover slipped.

For data set [5], the system named is full-thickness wounds on the dorsum of Yorkshire pigs. The following applies: day 14.
Experimental: To serve as controls, a group of wounds was treated with PBS for evaluating the potential effects of MNA administration, and a group was left untreated.
Large animal studies: The procedures for porcine animal studies were performed at Toxikon Corporation (Bedford, Mass.). The study protocol was approved by Toxikon's Institutional Animal Care and Use Committee, and conformed to federal animal laws and regulations. Three Yorkshire pigs (Animal Biotech Industries, Danboro, Pa.), 70-80 kg each, were anesthetized by intramuscular administration of 3.3 mg/kg ketamine, 2.2 mg/kg xylazine, 1.1 mg/kg acepromazine, and 0.02 mg/kg atropine. 0-5% isoflurane and oxygen were provided to maintain general anesthesia. Pain management was achieved by administration of a transdermal patch releasing 2-3 mkg/kg/h fentanyl per hour for 72 hours (Duragesic, Janssen). In addition, buprenorphine 0.01-0.03 mg/kg was delivered intramuscularly at the end of the surgery.
Circular full-thickness wounds (d=2.5 cm) were created on the dorsum of each pig. After marking the wounds in parallel paraspinal stripes, the outlines were tattooed with red ink using an electric tattoo marker (Spaulding & Rogers Mfg., Inc., Voorheesville, N.Y.). Full-thickness wounds down to fascia were excised. […]
For macroscopic wound evaluation, wound contraction was measured of the tattooed margins from macroscopic wound photos using Image J software (NIH, Bethesda, Md.). Open wound area (S1) and the area inside tattooed margin (S2) were measured and compared with original wound size on day 0 (S0=5 cm^2). The wound contraction and non-contracted wound closure contributions were calculated as 100×(S2−S0)/S0 and 100×(S2−S1)/S0, respectively.
In the swine experiment, the wounds were excised using a scalpel and fixed in formalin for immunohistochemical analysis. […] The wound sections were immunostained for von Willebrand Factor (vWF), smooth muscle actin (SMA), and CD3 based on manufacturers' protocols and the amount of positive staining was quantified in a blinded-manner using a light microscope.

Where two headings read alike, the source gives them in different places.

For `CCN(CC)c1ccc2c(-c3ccccc3C(=O)O)c3ccc(=[N+](CC)CC)cc-3oc2c1.[Cl-]` [rhodamine B], the “depth after which dye intensity promptly decreased” value in data set [1] is given as approximately 1 mm. Further, the “release profile from alginate-filled MNAs” value in data set [2] is “curved burst release over the first 6 hours, with slower, more linear release over the next 3 days”.
Turning to “vascular endothelial growth factor [VEGF]”, the migration rate entry in the data set on HUVECs is recorded as “comparable to the positive control group”. Also, in the data set with HUVECs (in 4 hours), the scratch closure is reported as 100%. Besides, the “wound closure / healing rate” value in data set [3] (MNA delivery, 100 μL of 500 ng/mL on days 5 and 7, day 19) came out at 95%. Further, in data set [3] (MNA delivery, day 17 and 19), the “wound closure compared with other groups” value was “significantly faster than both topical delivery and negative control groups”. Further, the average wound size in data set [3] (MNA delivery, day 19) was 0.04 cm^2; in data set [4] (MNA delivery, end of the study), 0.04 cm^2. The scarring entry in data set [3] (MNA delivery, end of the experiments) is given as “no evidence of scaring was observed”. For the same compound, the “hair growth in the wound area” value in data set [3] (topical delivery) is given as “no hair growth was observed”. Moreover, the “wound closure rate compared to negative control” value in data set [3] (topical delivery) was “No significant difference was observed in the wound closure rate”. Further, the average healing rate in data set [4] (LJI delivery, end of the study) worked out at 81%; in data set [4] (MNA delivery, end of the study) it was 96%. In addition, the “histological features at the central region of the wounds (H&E)” value is on record as “contained a bed of granulation tissue with a partially healed center” in data set [4] (TOP-administrated) and “more advanced wound healing characteristics” in data set [4] (intradermal delivery (MNA, LJI)). The “vascularization, IHC staining against CD31” value in data set [4] (intradermal delivery vs topical and controls, 19 days post-injury) is “Superior vascularization”. Besides, in data set [4] (intradermal delivery vs topical delivery and controls, 19 days after surgery), the overall healing result is on record as “improved healing”. In data set [4] (topical delivery, end of the 20-day study), the wound closure result was “about 66%”. The “wound closure rate compared to negative control groups” value in data set [4] (topical delivery, vs no treatment or PBS via MNA and LJI) is “No significant difference was observed in the wound closure rate”. In data set [5] (VEGF delivery), the “expression of SMA+ myofibroblasts (IHC)” value is “decreased the expression of SMA+ myofibroblasts”. Besides, the “vascularization (vWF expression)” value in data set [5] (intradermal (MNA) delivery) was “a significant enhancement in vascularization”; in data set [5] (topical delivery) it was “clearly less effective in inducing vascularization”.

These data come from patent US20220273926A1, “DRUG DELIVERY USING MICRONEEDLE ARRAYS” (BOARD OF REGENTS OF THE UNIVERSITY OF NEBRASKA, priority 2019, published 2022).
